In US12662490B2, “Heterocyclic compounds” (Hoffmann-La Roche Inc., priority 2019, dated 2026):

Target: T1, MAGL (Homo sapiens, UniProt Q99685)
T1 sequence (Q99685 1-303): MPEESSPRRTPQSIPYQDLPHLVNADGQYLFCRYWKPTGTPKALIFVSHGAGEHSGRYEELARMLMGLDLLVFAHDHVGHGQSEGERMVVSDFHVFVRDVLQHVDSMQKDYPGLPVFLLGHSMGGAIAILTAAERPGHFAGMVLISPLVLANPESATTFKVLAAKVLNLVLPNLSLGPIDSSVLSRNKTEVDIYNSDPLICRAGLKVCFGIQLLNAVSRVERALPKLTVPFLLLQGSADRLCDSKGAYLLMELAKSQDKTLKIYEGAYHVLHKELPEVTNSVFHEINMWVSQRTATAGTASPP
Assay: 2-AG assay (MAGL inhibitory activity; hydrolysis of 2-arachidonoylglycerol to arachidonic acid followed by mass spectrometry)
Type: biochemical
Conditions: 15 min preincubation at RT, 8 μM 2-arachidonoylglycerol, 30 min at RT, RapidFire MS readout
In short: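 Compounds (final 12.5 μM to […], 3-fold steps) preincubated 15 min at RT with MAGL ([…]) in 50 mM TRIS, 1 mM EDTA, Tween buffer. Reaction started with 8 μM 2-arachidonoylglycerol, run 30 min at RT, quenched with ACN containing d8-arachidonic acid. Arachidonic acid quantified by RapidFire SPE-triple quadrupole MS (negative ESI), activity from arachidonic acid/d8 ratio.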

SMILES | IC50 [µM]
O=C(c1cccc(-c2c[nH]nc2F)c1Cl)N1CCN2C[C@H](c3ccc(F)c(F)c3)OC[C@@H]2C1 [Example 96, [(3S,9aS)-3-(3,4-difluorophenyl)-3,4,6,7,9,9a-hexahydro-1H-pyrazino[2,1-c][1,4]oxazin-8-yl]-[2-chloro-3-(3-fluoro-1H-pyrazol-4-yl)phenyl]methanone] | 1.24
O=C(c1cccc(-c2c[nH]nc2F)c1Cl)N1CCN2C[C@@H](c3ccc(C(F)(F)F)nn3)OC[C@@H]2C1 [Example 97, [(3S,9aS)-3-[6-(trifluoromethyl)pyridazin-3-yl]-3,4,6,7,9,9a-hexahydro-1H-pyrazino[2,1-c][1,4]oxazin-8-yl]-[2-chloro-3-(3-fluoro-1H-pyrazol-4-yl)phenyl]methanone] | 0.439
COc1cccc(C(=O)N2CCN3C[C@@H](c4cc(C(F)(F)F)c(Cl)cn4)OC[C@@H]3C2)c1Cl [Example 98, (2-chloro-3-methoxy-phenyl)-[(3S,9aS)-3-[5-chloro-4-(trifluoromethyl)-2-pyridyl]-3,4,6,7,9,9a-hexahydro-1H-pyrazino[2,1-c][1,4]oxazin-8-yl]methanone] | 0.0307
COc1cccc(C(=O)N2CCN3C[C@@H](c4cc(OC(F)(F)F)ccn4)OC[C@@H]3C2)c1Cl [Example 99, (2-chloro-3-methoxy-phenyl)-[(3S,9aS)-3-[4-(trifluoromethoxy)-2-pyridyl]-3,4,6,7,9,9a-hexahydro-1H-pyrazino[2,1-c][1,4]oxazin-8-yl]methanone] | 0.284
O=C(c1cccc(-c2c[nH]nc2F)c1Cl)N1CCN2C[C@@](O)(c3ccc(C(F)(F)F)[nH]c3=O)OC[C@@H]2C1 [Example 100, 3-[(3R,9aS)-8-[2-chloro-3-(3-fluoro-1H-pyrazol-4-yl)benzoyl]-3-hydroxy-1,4,6,7,9,9a-hexahydropyrazino[2,1-c][1,4]oxazin-3-yl]-6-(trifluoromethyl)-1H-pyridin-2-one] | 0.0553
COc1cccc(C(=O)N2CCN3C[C@@H](c4cc(C(F)(F)F)c(F)cn4)OC[C@@H]3C2)c1Cl [Example 101, (2-chloro-3-methoxy-phenyl)-[(3S,9aS)-3-[5-fluoro-4-(trifluoromethyl)-2-pyridyl]-3,4,6,7,9,9a-hexahydro-1H-pyrazino[2,1-c][1,4]oxazin-8-yl]methanone] | 0.133
O=C(c1cccc(-c2cn[nH]c2C(F)(F)F)c1F)N1CCN2C[C@@H](c3ccc(F)c(Cl)c3)OC[C@@H]2C1 [Example 102, [(3R,9aS)-3-(3-chloro-4-fluoro-phenyl)-3,4,6,7,9,9a-hexahydro-1H-pyrazino[2,1-c][1,4]oxazin-8-yl]-[2-fluoro-3-[5-(trifluoromethyl)-1H-pyrazol-4-yl]phenyl]methanone] | 0.0207
O=C(c1cccc(-c2cn[nH]c2C(F)(F)F)c1)N1CCN2C[C@@H](c3ccc(F)c(Cl)c3)OC[C@@H]2C1 [Example 103, [(3R,9aS)-3-(3-chloro-4-fluoro-phenyl)-3,4,6,7,9,9a-hexahydro-1H-pyrazino[2,1-c][1,4]oxazin-8-yl]-[3-[5-(trifluoromethyl)-1H-pyrazol-4-yl]phenyl]methanone] | 0.0282
COc1cccc(C(=O)N2CCN3C[C@@H](c4cc(C(F)F)c(Cl)cn4)OC[C@@H]3C2)c1Cl [Example 104, (2-chloro-3-methoxy-phenyl)-[(3S,9aS)-3-[5-chloro-4-(difluoromethyl)-2-pyridyl]-3,4,6,7,9,9a-hexahydro-1H-pyrazino[2,1-c][1,4]oxazin-8-yl]methanone] | 0.0895
O=C(c1cccc(-c2cc[nH]c(=O)c2)c1Cl)N1CCN2C[C@@H](c3ccc(F)c(Cl)c3)OC[C@@H]2C1 [Example 105, 4-[3-[(3R,9aS)-3-(3-chloro-4-fluoro-phenyl)-3,4,6,7,9,9a-hexahydro-1H-pyrazino[2,1-c][1,4]oxazine-8-carbonyl]-2-chloro-phenyl]-1H-pyridin-2-one] | 0.0089
O=C(c1cccc(-c2ccc(=O)[nH]c2)c1Cl)N1CCN2C[C@@H](c3ccc(F)c(Cl)c3)OC[C@@H]2C1 [Example 106, 5-[3-[(3R,9aS)-3-(3-chloro-4-fluoro-phenyl)-3,4,6,7,9,9a-hexahydro-1H-pyrazino[2,1-c][1,4]oxazine-8-carbonyl]-2-chloro-phenyl]-1H-pyridin-2-one] | 0.0143
COc1cccc(C(=O)N2CCN3C[C@@H](c4cc(Br)c(Cl)cn4)OC[C@@H]3C2)c1Cl [Example 107, (2-chloro-3-methoxy-phenyl)-[(3S,9aS)-3-[5-chloro-4-bromo-2-pyridyl]-3,4,6,7,9,9a-hexahydro-1H-pyrazino[2,1-c][1,4]oxazin-8-yl]methanone] | 0.0126
O=C(c1cccc(N2CC(O)C2)c1Cl)N1CCN2C[C@@H](c3ccc(F)c(Cl)c3)OC[C@@H]2C1 [Example 108, [(3R,9aS)-3-(3-chloro-4-fluoro-phenyl)-3,4,6,7,9,9a-hexahydro-1H-pyrazino[2,1-c][1,4]oxazin-8-yl]-[2-chloro-3-(3-hydroxyazetidin-1-yl)phenyl]methanone] | 0.0105
N#Cc1cc(-c2cccc(C(=O)N3CCN4C[C@@](O)(c5ccc(F)c(Cl)c5)OC[C@@H]4C3)c2Cl)c[nH]1 [Example 109, 4-[3-[(3R,9aS)-3-(3-chloro-4-fluoro-phenyl)-3-hydroxy-1,4,6,7,9,9a-hexahydropyrazino[2,1-c][1,4]oxazine-8-carbonyl]-2-chloro-phenyl]-1H-pyrrole-2-carbonitrile] | 0.0016
COc1cccc(C(=O)N2CCN3C[C@@H](c4ccc(Br)c(Cl)c4)OC[C@@H]3C2)c1Cl [Example 110, [(3R,9aS)-3-(4-bromo-3-chloro-phenyl)-3,4,6,7,9,9a-hexahydro-1H-pyrazino[2,1-c][1,4]oxazin-8-yl]-(2-chloro-3-methoxy-phenyl)methanone] | 0.005
COc1ccc(F)c(C(=O)N2CCN3C[C@@H](c4ccc(F)c(Cl)c4)OC[C@@H]3C2)c1Cl [Example 111, [(3R,9aS)-3-(3-chloro-4-fluoro-phenyl)-3,4,6,7,9,9a-hexahydro-1H-pyrazino[2,1-c][1,4]oxazin-8-yl]-(2-chloro-6-fluoro-3-methoxy-phenyl)methanone] | 0.0058
N#Cc1cc(-c2cc(F)cc(C(=O)N3CCN4C[C@@H](c5ccc(C(F)(F)F)[nH]c5=O)OC[C@@H]4C3)c2Cl)c[nH]1 [Example 112, 4-[3-[(3R,9aS)-3-[2-oxo-6-(trifluoromethyl)-1H-pyridin-3-yl]-3,4,6,7,9,9a-hexahydro-1H-pyrazino[2,1-c][1,4]oxazine-8-carbonyl]-2-chloro-5-fluoro-phenyl]-1H-pyrrole-2-carbonitrile] | 0.0065
N#Cc1cc(-c2cccc(C(=O)N3CCN4C[C@@](O)(c5ccc(F)c(F)c5)OC[C@@H]4C3)c2Cl)c[nH]1 [Example 113, 4-[3-[(3R,9aS)-3-(3,4-difluorophenyl)-3-hydroxy-1,4,6,7,9,9a-hexahydropyrazino[2,1-c][1,4]oxazine-8-carbonyl]-2-chloro-phenyl]-1H-pyrrole-2-carbonitrile] | 0.0076
O=C(c1cc(F)cc(-c2cc[nH]c(=O)c2)c1Cl)N1CCN2C[C@@H](c3ccc(F)c(Cl)c3)OC[C@@H]2C1 [Example 114, 4-[3-[(3R,9aS)-3-(3-chloro-4-fluoro-phenyl)-3,4,6,7,9,9a-hexahydro-1H-pyrazino[2,1-c][1,4]oxazine-8-carbonyl]-2-chloro-5-fluoro-phenyl]-1H-pyridin-2-one] | 0.0108
N#Cc1cc(-c2cc(F)cc(C(=O)N3CCN4C[C@@H](c5cc(Cl)c[nH]c5=O)OC[C@@H]4C3)c2Cl)c[nH]1 [Example 115, 4-[3-[(3R,9aS)-3-(5-chloro-2-oxo-1H-pyridin-3-yl)-3,4,6,7,9,9a-hexahydro-1H-pyrazino[2,1-c][1,4]oxazine-8-carbonyl]-2-chloro-5-fluoro-phenyl]-1H-pyrrole-2-carbonitrile] | 0.0135
COc1ccc(F)c(C(=O)N2CCN3C[C@@](O)(c4ccc(F)c(Cl)c4)OC[C@@H]3C2)c1Cl [Example 116, [(3R,9aS)-3-(3-chloro-4-fluoro-phenyl)-3-hydroxy-1,4,6,7,9,9a-hexahydropyrazino[2,1-c][1,4]oxazin-8-yl]-(2-chloro-6-fluoro-3-methoxy-phenyl)methanone] | 0.0159
N#Cc1cc(-c2cccc(C(=O)N3CCN4C[C@@H](c5cc(Cl)c[nH]c5=O)OC[C@@H]4C3)c2Cl)c[nH]1 [Example 117, 4-[3-[(3R,9aS)-3-(5-chloro-2-oxo-1H-pyridin-3-yl)-3,4,6,7,9,9a-hexahydro-1H-pyrazino[2,1-c][1,4]oxazine-8-carbonyl]-2-chloro-phenyl]-1H-pyrrole-2-carbonitrile] | 0.0174
O=C(c1cccc(-c2c[nH]c(=O)o2)c1Cl)N1CCN2C[C@@H](c3ccc(Cl)c(Cl)c3)OC[C@@H]2C1 [Example 118, 5-[3-[(3R,9aS)-3-(3,4-dichlorophenyl)-3,4,6,7,9,9a-hexahydro-1H-pyrazino[2,1-c][1,4]oxazine-8-carbonyl]-2-chloro-phenyl]-3H-oxazol-2-one] | 0.0331
COc1cccc(C(=O)N2CCN3C[C@@](O)(c4ccc(C(F)(F)F)cc4)OC[C@@H]3C2)c1Cl [Example 119, [(3R,9aS)-3-hydroxy-3-[4-(trifluoromethyl)phenyl]-1,4,6,7,9,9a-hexahydropyrazino[2,1-c][1,4]oxazin-8-yl]-(2-chloro-3-methoxy-phenyl)methanone] | 0.0347
